From publication PMC7274078, “Brain Endothelial Cells Regulate Glucagon-Like Peptide 1 Entry Into the Brain via a Receptor-Mediated Process” (Frontiers in Physiology, 2020)

Key:
[1] = test system: Rat brain microvascular endothelial cells (RBMECs); assay: Endothelial cell uptake of GLP-1-FAM; type: cell-based
Experimental: Rat brain microvascular endothelial cells (RBMECs; Cell Applications, San Diego, CA, United States) were cultured on a cover slip in rat brain endothelial cell growth medium. After reaching confluency, cells were pre-treated with vehicle (PSS buffer), exendin 9-39 (10 nM) or H89 (Sigma-Aldrich, St. Louis, MO, United States) (10 μM) for 30 min or forskolin (Sigma-Aldrich, St. Louis, MO, United States) (10 μM) for 5 min. Cells were then incubated with GLP-1-FAM at either 10, 100 or 1,000 pM for 3 min at 37°C. DAPI was used to stain the nucleus. After fixation and washing three times with cold TBST (5 min each time), cell images were captured using confocal microscope and fluorescence intensity measured using ImageJ software^1. FAM signal from surface binding of FAM was examined by incubating cells with GLP-1-FAM at 4 or 37°C for 3 min, or free FAM (10, 100, and 1,000 pM) at 37°C for 3 min.
FIGURE 5 GLP-1 uptake by RBMECs is GLP-1 receptor and PKA dependent. RBMECs were pretreated with vehicle (PSS buffer, A,E,I), Exendin 9-39 (10 nM, B,F,J) or H89 (10 μM, C,G,K) for 30 min. Cells were then incubated with GLP-1-FAM at 10, 100 pM or 1 nM for 3 min. DAPI was used to stain the nucleus. Images were captured using confocal microscope. Fluorescence density was analyzed using ImageJ. (D,H,L) Quantitative analysis (n = 3, *p < 0.01, vs. vehicle, Student’s t test). GLP-1R – GLP-1 receptor.
FIGURE 6 cAMP agonist increases GLP-1 uptake by RBMECs. (A) RBMECs were incubated with GLP-1-FAM at 10 pM for 3 min with or without 10 μM forskolin. DAPI was used to stain the nucleus. Images was captured using confocal microscope. Fluorescence density was analyzed using ImageJ. (B) quantitative analysis of the images (n = 6, *p < 0.05, vs. vehicle, Student’s t test).

GLP-1 receptor = biological target: T1, GLP-1 receptor (Rattus norvegicus, UniProt P32301); assay: Effect of GLP-1 receptor antagonist infusion on brain uptake of labeled GLP-1 or exendin-4; type: in vivo; details: exendin-(9-39) 30 nmol/kg/min for 20 min
T1 construct: from tissue; host or cells: live rat; brain regions (cerebellum, cortex, hippocampus, hypothalamus, brain stem) and brain microvasculature
T1 sequence (P32301 22-463): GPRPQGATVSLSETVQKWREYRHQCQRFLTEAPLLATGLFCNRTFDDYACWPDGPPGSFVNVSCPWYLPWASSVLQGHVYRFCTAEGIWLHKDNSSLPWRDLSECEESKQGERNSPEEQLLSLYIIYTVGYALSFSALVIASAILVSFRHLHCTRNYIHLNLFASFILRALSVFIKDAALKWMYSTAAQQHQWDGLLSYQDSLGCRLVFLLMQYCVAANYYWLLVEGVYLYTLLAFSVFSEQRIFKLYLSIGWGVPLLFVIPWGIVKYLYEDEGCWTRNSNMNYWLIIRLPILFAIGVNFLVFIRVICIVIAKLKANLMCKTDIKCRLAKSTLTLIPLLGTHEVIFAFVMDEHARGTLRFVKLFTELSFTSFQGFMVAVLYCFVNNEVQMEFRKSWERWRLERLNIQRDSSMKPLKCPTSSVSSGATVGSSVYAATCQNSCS
Experimental: Rats received a systemic infusion of either saline or exendin-(9-39) (GLP-1 receptor antagonist, 30 nmol/kg/min, Abcam, Cambridge, United Kingdom) via the jugular vein catheter for 20 min (Figure 1A). In the last 10 min, rats also received 30 pmol/kg/min of either GLP-1-FAM (AnaSpec, Fremont, CA, United States) or exendin-4-FAM (AnaSpec, Fremont, CA, United States) together with Dextran-TRITC (Sigma-Aldrich, St. Louis, MO, United States) (70 kD, vascular space marker, 30 pmol/kg/min). […] After collecting plasma samples, rats were sacrificed via anesthetic overdose and various brain regions (cerebellum, cortex, hippocampus, hypothalamus, and brain stem) collected, homogenized and lysed in lysis buffer. Fluorescence from TRITC and FAM were measured in both plasma and brain lysates. Protein concentrations were determined in the brain lysates. Brain uptake of GLP-1-FAM and exendin-4-FAM were calculated using the following formula:
Tissue fluorescence [FAM]/Tissue weight (μg)−TissueFluorescence [TRITC]/Weight(μg)/PlasmaFluorescence [TRITC]/200(μL)×Plasma Fluorescence [FAM]/200μL
FIGURE 1 GLP-1 and GLP-1 analog exendin-4 enter various brain regions via GLP-1 receptor-mediated process. (A) Protocol. […]

[2] = test system: RBMEC and astrocyte barrier; assay: Trans-endothelial GLP-1 transport (Transwell artificial BBB); type: in vitro ADME, rat; details: exendin-(9-39) 100 nM, 10 min pre-treatment and during transport; GLP-1-FAM 100 pM; n = 7, p < 0.01
Experimental: The trans-endothelial GLP-1 transport was examined using a Transwell system that mimics the BBB in that RBMECs were co-cultured with astrocytes as illustrated in Figure 7A and previously described ([Gaillard et al., 2001]). Briefly, astrocytes (Thermo Fisher Scientific, Waltham, MA, United States) were seeded on the bottom and RBMECs were then seeded onto the top of the Transwell insert (6.5 mm diameter, 1 μm pore size, polyester membrane; Corning, Corning, NY, United States). Trans-endothelial electrical resistance was monitored using a volt-ohmmeter (EVOM; WPI, Sarasota, FL, United States) and EndOhm chamber (EndOhm; WPI). When the trans-endothelial electrical resistance reached its peak, the insert with double cell layers was washed twice at 37°C with PBS buffer. […] The amount of GLP-1-FAM or inulin-FITC transported to the lower chamber was determined by measuring FAM and FITC fluorescence in the lower chamber at 5, 10, and 30 min. Inulin-FITC transport was used to correct for paracellular transport and the amount of trans-endothelial transport of GLP-1-FAM was calculated using the formula:
Transcellular transport (%)=Fluorescence [FAM]/Reference [FAM]×100−Fluorescence [FITC]/Reference [FITC]×100
Reference refers to fluorescence in the lower chamber at the specified time point when the Transwell inserts had no cells seeded. To determine if this trans-endothelial transport is dose-dependent, 10, 100, and 1,000 pM GLP-1-FAM or inulin-FITC (with DDP-4 inhibitor) was loaded into the upper chamber, the amount of GLP-1-FAM or inulin-FITC in the lower chamber was determined at 10 min, and trans-endothelial transport of GLP-1 was calculated.
FIGURE 7 Trans-endothelial transport of GLP-1 is a GLP-1 receptor-mediated process. […] GLP-1-FAM or inulin-FITC transport to the lower chamber was determined by measuring FAM and FITC fluorescence in the lower chamber. […]

[3] = pre-treatment 30 min with exendin 9-39 10 nM or H89 10 μM, GLP-1-FAM 10, 100 or 1,000 pM for 3 min at 37°C, n = 3, p < 0.01 vs vehicle

Compound | effect on RBMEC uptake of GLP-1-FAM [1, 3] | effect on RBMEC uptake of GLP-1-FAM ([1]; forskolin 10 μM, 5 min, GLP-1-FAM 10 pM for 3 min, n = 6, p < 0.05 vs vehicle) | effect on amount of GLP-1-FAM fluorescence in various brain regions (GLP-1 receptor; GLP-1-FAM 30 pmol/kg/min in last 10 min, n = 7, p < 0.05) | effect on exendin-4-FAM fluorescence in various brain regions (GLP-1 receptor; exendin-4-FAM 30 pmol/kg/min in last 10 min, n = 6, p < 0.05) | effect on trans-endothelial transport of labeled GLP-1 [2]
O=S(=O)(NCCNC/C=C/c1ccc(Br)cc1)c1cccc2cnccc12 [H89] | blunted | – | – | – | –
C=C[C@@]1(C)CC(=O)[C@]2(O)[C@@]3(C)[C@@H](O)CCC(C)(C)[C@@H]3[C@H](O)[C@H](OC(C)=O)[C@@]2(C)O1 [forskolin] | – | significantly enhanced | – | – | –
exendin-(9-39) | blunted | – | markedly decreased | almost completely abolished | inhibited
